The values that follow are results of earlier work, collected in patent US9061061B2, “Method of treating dysglycemia and glucose excursions” (ORX PHARMACEUTICAL CORPORATION, priority 2008, dated 2015).

The conditions of the series: single 850 mg tablet.

For `CN(C)C(=N)N=C(N)N` [metformin], the “lower peak plasma concentration (Cmax) with food compared to fasting” value is given as approximately 40% and the “prolongation of time to peak plasma concentration (Tmax) with food” value is 35 min.
